Source: patent US11427869B2, “T cell balance gene expression, compositions of matters and methods of use thereof” (THE BROAD INSTITUTE, INC., priority 2015, dated 2022)

System: CD5L−/− Th17 cells
Experiment: Nanostring nCounter Th17 codeset (312 genes), PUFA- or control-treated CD5L−/− Th17 cells
Format: cell-based, mouse
Description: Applicants studied the contribution of lipid saturation to Th17 cell pathogenicity. […] Applicants analyzed the expression of a 312 gene signature of Th17 cell differentiation and function (Yosef et al., 2013) in SFA- or control-treated WT Th17 cells and in PUFA- or control-treated CD5L−/− Th17 cells differentiated with TGF-81+IL-6.
T cell differentiation culture. Naïve CD4+CD44−CD62L+CD25− T cells or Effector memory CD4+CD44+CD62L− were sorted using BD FACSAria sorter and activated with plate-bound anti-CD3 and anti-CD28 antibodies (both at 2 μg/ml) in the presence of cytokines at a concentration of 2.5×10^5 cells/ml. For Th17 differentiation: 2 ng/ml of rhTGFβ1, 2 ng/ml of rhTGFβ3, 25 ng/ml rmIL-6, 20 ng/ml rmIL-18 (all from Miltenyi Biotec) and 20 ng/ml rmIL-23 (R & D systems) were used at various combinations as specified in figures. For Th1 differentiation, 20 ng/ml rmIL-12 (R & D systems); for Th2 differentiation 20 ng/ml rmIL-4 (Miltenyi Biotec); for iTreg differentiation, 2.5 ng/ml of rhTGFβ1 were used (Miltenyi Biotec). For differentiation experiments, cells were harvested at 48 hours. For restimulation experiments, cells were differentiated for 48 hours and resuspended in fresh media with no additional cytokines for 48-72 hours. Cells were re-stimulated with PMA/ionomycin for four hours before analysis for cytokines by intracellular cytokine staining. For experiments with exogenous fatty acid, fatty acids were purchased and resuspended first with serum-free media containing BSA prior being added to culture.
Nanostring nCounter. Nanostring nCounter platform (NanoString Technologies) is used to measure the number of RNA transcripts in RNA samples (FIG. 16I, FIG. 18D). A codeset containing 312 signature genes of Th17 cell differentiation and function as well as 4 additional house-keeping genes were custom-made (Yosef et al., 2013) and used in these experiments. Experimental procedures as detailed by the manufacturer is strictly followed.

## CCCCC/C=C\C/C=C\C/C=C\C/C=C\CCCC(=O)O [PUFA, arachidonic acid]
CD5LKO Th17 cells + PUFA
  ATF2 expression (Nanostring), normalized to WT: 0.89
  Abcg2 expression (Nanostring), normalized to WT: 1.20
  Acvr2a expression (Nanostring), normalized to WT: 1.32
  Ahr expression (Nanostring), normalized to WT: 1.08
  Arl5a expression (Nanostring), normalized to WT: 1.33
  Atf4 expression (Nanostring), normalized to WT: 0.73
  BC021614 expression (Nanostring), normalized to WT: 1.04
  Bcl2l11 expression (Nanostring), normalized to WT: 0.71
  Bcl3 expression (Nanostring), normalized to WT: 1.13
  Bcl11b expression (Nanostring), normalized to WT: 1.03
  Bhlhe40 expression (Nanostring), normalized to WT: 0.70
  Casp3 expression (Nanostring), normalized to WT: 0.71
  Casp4 expression (Nanostring), normalized to WT: 1.52
  Ccl1 expression (Nanostring), normalized to WT: 0.67
  Ccl20 expression (Nanostring), normalized to WT: 0.84
  Ccr4 expression (Nanostring), normalized to WT: 1.69
  Ccr8 expression (Nanostring), normalized to WT: 0.71
  Cd9 expression (Nanostring), normalized to WT: 1.27
  Cd70 expression (Nanostring), normalized to WT: 0.77
  Cd83 expression (Nanostring), normalized to WT: 0.88
  Cd86 expression (Nanostring), normalized to WT: 1.73
  Cd247 expression (Nanostring), normalized to WT: 1.32
  Clcf1 expression (Nanostring), normalized to WT: 1.25
  Csf2 expression (Nanostring), normalized to WT: 1.20
  Ctla4 expression (Nanostring), normalized to WT: 1.63
  Cxcl10 expression (Nanostring), normalized to WT: 1.64
  Cxcr3 expression (Nanostring), normalized to WT: 1.44
  Cxcr4 expression (Nanostring), normalized to WT: 0.87
  Cxcr5 expression (Nanostring), normalized to WT: 1.42
  EBF1 expression (Nanostring), normalized to WT: 1.64
  Egr2 expression (Nanostring), normalized to WT: 1.64
  Elk3 expression (Nanostring), normalized to WT: 1.04
  Ercc5 expression (Nanostring), normalized to WT: 0.66
  Etv6 expression (Nanostring), normalized to WT: 1.70
  Faim3 expression (Nanostring), normalized to WT: 1.31
  Fli1 expression (Nanostring), normalized to WT: 1.35
  Flna expression (Nanostring), normalized to WT: 1.10
  Foxo1 expression (Nanostring), normalized to WT: 1.03
  Foxp1 expression (Nanostring), normalized to WT: 1.25
  Foxp3 expression (Nanostring), normalized to WT: 1.22
  Frmd4b expression (Nanostring), normalized to WT: 1.28
  Fxd7 expression (Nanostring), normalized to WT: 0.72
  Gap43 expression (Nanostring), normalized to WT: 0.68
  Gem expression (Nanostring), normalized to WT: 0.73
  Gimap5 expression (Nanostring), normalized to WT: 1.58
  Gja1 expression (Nanostring), normalized to WT: 0.66
  Gmfg expression (Nanostring), normalized to WT: 0.76
  Grn expression (Nanostring), normalized to WT: 1.16
  Gusb expression (Nanostring), normalized to WT: 0.94
  Hip1r expression (Nanostring), normalized to WT: 0.89
  IL-33 expression (Nanostring), normalized to WT: 0.66
  Ifih1 expression (Nanostring), normalized to WT: 1.25
  Ifng expression (Nanostring), normalized to WT: 0.93
  Ikzf3 expression (Nanostring), normalized to WT: 1.06
  Il1r1 expression (Nanostring), normalized to WT: 1.36
  Il2ra expression (Nanostring), normalized to WT: 0.99
  Il3 expression (Nanostring), normalized to WT: 1.45
  Il4ra expression (Nanostring), normalized to WT: 1.13
  Il6st expression (Nanostring), normalized to WT: 0.89
  Il7r expression (Nanostring), normalized to WT: 1.37
  Il10 expression (Nanostring), normalized to WT: 1.01
  Il10ra expression (Nanostring), normalized to WT: 0.95
  Il12rb1 expression (Nanostring), normalized to WT: 0.80
  Il12rb2 expression (Nanostring), normalized to WT: 1.60
  Il17a expression (Nanostring), normalized to WT: 1.11
  Il17f expression (Nanostring), normalized to WT: 0.71
  Il21 expression (Nanostring), normalized to WT: 0.97
  Il23r expression (Nanostring), normalized to WT: 1.11
  Il27ra expression (Nanostring), normalized to WT: 1.55
  Inhba expression (Nanostring), normalized to WT: 0.81
  Irf4 expression (Nanostring), normalized to WT: 0.65
  Irf7 expression (Nanostring), normalized to WT: 1.17
  Irf8 expression (Nanostring), normalized to WT: 1.29
  Itga3 expression (Nanostring), normalized to WT: 0.76
  Jak3 expression (Nanostring), normalized to WT: 1.27
  Jun expression (Nanostring), normalized to WT: 0.64
  Kat2b expression (Nanostring), normalized to WT: 1.22
  Klf9 expression (Nanostring), normalized to WT: 0.75
  Klf10 expression (Nanostring), normalized to WT: 1.30
  Klrd1 expression (Nanostring), normalized to WT: 0.63
  Lad1 expression (Nanostring), normalized to WT: 1.18
  Lgals3bp expression (Nanostring), normalized to WT: 1.34
  Litaf expression (Nanostring), normalized to WT: 0.61
  Lpxn expression (Nanostring), normalized to WT: 1.39
  Maf expression (Nanostring), normalized to WT: 0.84
  Maff expression (Nanostring), normalized to WT: 0.77
  Map3k5 expression (Nanostring), normalized to WT: 1.49
  Mbnl3 expression (Nanostring), normalized to WT: 1.30
  Mina expression (Nanostring), normalized to WT: 1.08
  Mt1 expression (Nanostring), normalized to WT: 0.79
  Mt2 expression (Nanostring), normalized to WT: 0.84
  Nfkbie expression (Nanostring), normalized to WT: 1.52
  Nkg7 expression (Nanostring), normalized to WT: 1.40
  Notch2 expression (Nanostring), normalized to WT: 1.20
  Oas2 expression (Nanostring), normalized to WT: 0.82
  Peli2 expression (Nanostring), normalized to WT: 0.83
  Plac8 expression (Nanostring), normalized to WT: 0.85
  Plagl1 expression (Nanostring), normalized to WT: 1.07
  Pmepa1 expression (Nanostring), normalized to WT: 1.19
  Pou2af1 expression (Nanostring), normalized to WT: 0.86
  Prkd3 expression (Nanostring), normalized to WT: 1.51
  Pstpip1 expression (Nanostring), normalized to WT: 1.24
  Rab33a expression (Nanostring), normalized to WT: 1.50
  Rasgrp1 expression (Nanostring), normalized to WT: 1.21
  Rel expression (Nanostring), normalized to WT: 0.73
  Rela expression (Nanostring), normalized to WT: 0.96
  Rfk expression (Nanostring), normalized to WT: 1.07
  Rorc expression (Nanostring), normalized to WT: 1.52
  Sap30 expression (Nanostring), normalized to WT: 0.81
  Sema7a expression (Nanostring), normalized to WT: 1.04
  Serpinb1a expression (Nanostring), normalized to WT: 0.77
  Ski expression (Nanostring), normalized to WT: 0.86
  Slc6a6 expression (Nanostring), normalized to WT: 1.03
  Smad3 expression (Nanostring), normalized to WT: 1.03
  Socs3 expression (Nanostring), normalized to WT: 1.38
  Spp1 expression (Nanostring), normalized to WT: 0.66
  Spry1 expression (Nanostring), normalized to WT: 1.02
  Stat4 expression (Nanostring), normalized to WT: 1.21
  Stat5b expression (Nanostring), normalized to WT: 1.19
  Stat6 expression (Nanostring), normalized to WT: 1.13
  Sult2b1 expression (Nanostring), normalized to WT: 0.61
  Tal2 expression (Nanostring), normalized to WT: 1.52
  Tcf4 expression (Nanostring), normalized to WT: 1.29
  Tgfb1 expression (Nanostring), normalized to WT: 0.68
  Tgfb3 expression (Nanostring), normalized to WT: 1.67
  Tgfbr3 expression (Nanostring), normalized to WT: 0.94
  Tgm2 expression (Nanostring), normalized to WT: 1.51
  Tmem229b expression (Nanostring), normalized to WT: 1.52
  Tnfrsf4 expression (Nanostring), normalized to WT: 1.05
  Tnip2 expression (Nanostring), normalized to WT: 0.78
  Trat1 expression (Nanostring), normalized to WT: 0.85
  Trim25 expression (Nanostring), normalized to WT: 1.17
  Trps1 expression (Nanostring), normalized to WT: 1.44
  Tsc22d3 expression (Nanostring), normalized to WT: 0.66
  Ubiad1 expression (Nanostring), normalized to WT: 1.16
  Vav3 expression (Nanostring), normalized to WT: 1.20
  Xrcc5 expression (Nanostring), normalized to WT: 1.27
  nrp1 expression (Nanostring), normalized to WT: 0.90
  pou2f1 expression (Nanostring), normalized to WT: 0.66
PUFA-treated CD5L−/− Th17 cells, TGF-β1+IL-6
  transcriptional signature (312 gene Th17 codeset, genes >1.5 fold): resemble WT non-pathogenic Th17 cells
